The source of these data is article PMC8986850, “Development and exploration of novel substituted thiosemicarbazones as inhibitors of aldose reductase via in vitro analysis and computational study” (Scientific Reports, 2022).

The nature of data set [1]: DPPH radical scavenging activity. The following applies: 100 µM compound, methanolic DPPH 0.025 mg/mL, 517 nm. As to the method: DPPH (2,2-diphenyl-1-picrylhydrazyl) was used to explore the free radical quenching ability of 3a-o so as to provide a gauge of their antioxidant potential. The experiment was conducted according to a previously reported protocol with slight modifications. Percent free radical scavenging activities (% FRSA) of 3a-o were determined by spectrophotometric analysis at 517 nm using a homogenous mixture of methanolic DPPH (0.025 mg/mL) and a 100 µM solution of the tested compound, with ascorbic acid used as a positive control (Fig. 3).

The next data set concerns the target T1, human AKR1B1 (hAKR1B1) (Homo sapiens, UniProt P15121).
T1 construct: made in house; host or cells: E. coli BL21 (DE3)
Nature of the data set: Inhibition of expressed human AKR1B1 (E. coli BL21 (DE3)). As to conditions: for IC50: human AKR1B1 expressed in E. coli BL21 (DE3), mean ± SEM of three measurements; for inhibition at 100 µM: human AKR1B1 expressed in E. coli, 100 µM inhibitor, read-out: I (%, 100 µM) (AKR1B1). The format is biochemical. The protocol:
For the enzyme inhibition assay, ALR2 and ALR1 were extracted from bovine sources (ALR2 from eyes and ALR1 from kidneys). Moreover, inhibitions studies were also carried out on the expressed ALR2 (human AKR1B1) and inhibition data for ALR2- bovine source and expressed enzyme was compared and analyzed. The protocols for enzyme extraction and expression in the bacterial system are included in the section of “Supporting information”. […] For the purpose of comparison and validation of enzyme inhibition data, these compounds were tested against human AKR1B1 (hAKR1B1) expressed in E. coli BL21 (DE3).
For the determination of enzyme activity of ALR1 and ALR2, 100 µL of reaction mixture was composed of 20 µL of buffer (100 mM sodium phosphate, pH 6.2), 30 µL of enzyme extract, 20 µL of substrate (10 mM), 20 µL of cofactor (0.1 mM of NADPH) and 10 µL of test compound (1 mM)[6],[21]. […] Similar protocols were followed for ALR1 and ALR2, however the substrate was different for each enzyme, with sodium-D-glucoronate and DL-glyceraldehyde used as the substrates for the ALR1 and ALR2 assays, respectively. […] In addition, similar protocols were adopted for human AKR1B1 that was expressed in E. coli BL21 (DE3), though the determined protein concentration was 12 µg/mL for the expressed enzyme. Detailed protocols for the preparation of ALR1, ALR2 and expressed human AKR1B1 can be found in the supporting information.
(§1) The newly synthesized N-substitute thiosemicarbazones (3a-o) were dissolved in 100% DMSO and diluted with deionized water, keeping the DMSO concentration equal to 0.1% in the assay.
The expression plasmid for aldose reductase (pDONR223_AKR1B1_WT) was gift from Addgene in stable culture. Streaking of this culture has been carried out on LB Agar plate then incubated overnight, after growth of colonies , inoculation was performed in LB medium then incubated this medium in shaking incubator at 37 °C. After 48 hours turbidity was measured when OD=0.6 then some of bacterial growth was prepared as 50% glycerol stock. Others are subjected to plasmid isolation following method Miniprep. Meanwhile E. Coli BL21 De3 cells were made competent then transformation with extracted plasmid (AKR1B1) had been carried out heat shock method. Transformed cell ( E.Coli BL21 DE3+AKR1B1) were grown in 37 °C in shaking incubator for 48 hr. The selection for transformed cells was carried out with the help of antibiotic (spectinomycin 50µg/ml). […] For the expression of aldose reductase , E.coli BL21DE3 were induced with of IPTG(Isopropyl-d-thiogalactopyranoside)[3]. […] The expressed enzyme was stabilized by addition 10 mM Tris–HCl buffer, 0.5 mM EDTA, 5 mM β-marcaptoethanol at pH 8.0 and 20% (v/v) glycerol. Cells were lysed with lysis buffer and then precipitation with ammonium sulfate up to 80% saturation was done . the expressed enzyme was dialyzed overnight against tris buffer. Protein quantification was performed following Bradford protein assay. Aliqoutes were stored at -80 refrigerator.

A further data set addresses T2, ALR2 (Bos taurus, UniProt P16116).
T2 construct: from tissue; host or cells: calf eye lenses
Nature of the data set: ALR2 enzyme inhibition assay (enzyme extracted from calf lenses). In kind it is biochemical, bovine. The following applies: for IC50: bovine lens ALR2, substrate DL-glyceraldehyde, mean ± SEM of three measurements; for inhibition at 100 µM: bovine lens ALR2, 100 µM inhibitor, read-out: I (%, 100 µM) (ALR2) (converted). As to the method: Compounds 3a-o were tested against ALR2 to evaluate their inhibitory potential against aldose reductase whereas selectivity was determined via performing ALR1 inhibition assay. For the enzyme inhibition assay, ALR2 and ALR1 were extracted from bovine sources (ALR2 from eyes and ALR1 from kidneys). Moreover, inhibitions studies were also carried out on the expressed ALR2 (human AKR1B1) and inhibition data for ALR2- bovine source and expressed enzyme was compared and analyzed. The protocols for enzyme extraction and expression in the bacterial system are included in the section of “Supporting information”. […] For the purpose of comparison and validation of enzyme inhibition data, these compounds were tested against human AKR1B1 (hAKR1B1) expressed in E. coli BL21 (DE3).
(§2) For the determination of enzyme activity of ALR1 and ALR2, 100 µL of reaction mixture was composed of 20 µL of buffer (100 mM sodium phosphate, pH 6.2), 30 µL of enzyme extract, 20 µL of substrate (10 mM), 20 µL of cofactor (0.1 mM of NADPH) and 10 µL of test compound (1 mM)[6],[21]. The reaction mixture without cofactor was incubated at 32°C for 10 min, then the enzymatic reaction was initiated with the addition of NADPH and monitored for 5 minutes. Similar protocols were followed for ALR1 and ALR2, however the substrate was different for each enzyme, with sodium-D-glucoronate and DL-glyceraldehyde used as the substrates for the ALR1 and ALR2 assays, respectively. […] In addition, similar protocols were adopted for human AKR1B1 that was expressed in E. coli BL21 (DE3), though the determined protein concentration was 12 µg/mL for the expressed enzyme. Detailed protocols for the preparation of ALR1, ALR2 and expressed human AKR1B1 can be found in the supporting information.
as §1
The extraction of ALR2 was carried out from calf lenses via adopting method described in
in (Hayman and Kinoshita 1965) with little modification. The lenses were obtained from slaughterhouse immediately after calf’s slaughtering and stored at -20^◦C until further use. These lense (150-170g) were subjected to homogenization with about three times volume of cold distilled water and then centrifugation was carried out for the homogenate at 10,000 x g for 14 minutes for removal of insoluble lipids particles. Precipitates were discarded and supernatant layer was subjected to 40% saturation of ammonium sulphate and again centrifugation was performed with same parameters for 14 minutes and again precipitates were discarded. […] In the last step, the supernatant was subjected to 75% of saturation with ammonium sulphate to obtain ALR2. Now, the precipitates were collected instead supernatant because precipitated protein was the expected desired ALR2. The precipitated enzyme (ALR2) was redissolved in 50mM solution of sodium chloride and dialyzed for 24 hours against 50mM solution (3.5L) of NaCl. The volume was recorded before and after dialysis, then dialyzed material was treated with liquid nitrogen. The extracted ALR2 was stored in 1mL Eppendorf tube in deep freezer at -80 ^◦C till further enzymatic studies.

A further data set has as its target T3, ALR1 (Bos taurus, UniProt Q3ZCJ2).
T3 construct: The calf’s kidneys were obtained after slaughtering and dissection; from tissue; host or cells: calf kidneys
Nature of the data set: ALR1 enzyme inhibition assay (enzyme extracted from calf kidneys). The format is biochemical, bovine. The following applies: for inhibition at 100 µM: bovine kidney ALR1, 100 µM inhibitor, read-out: I (%, 100 µM) (ALR1); for IC50: bovine kidney ALR1, substrate sodium-D-glucoronate, mean ± SEM of three measurements. The protocol:
Compounds 3a-o were tested against ALR2 to evaluate their inhibitory potential against aldose reductase whereas selectivity was determined via performing ALR1 inhibition assay. For the enzyme inhibition assay, ALR2 and ALR1 were extracted from bovine sources (ALR2 from eyes and ALR1 from kidneys). Moreover, inhibitions studies were also carried out on the expressed ALR2 (human AKR1B1) and inhibition data for ALR2- bovine source and expressed enzyme was compared and analyzed. The protocols for enzyme extraction and expression in the bacterial system are included in the section of “Supporting information”. […] For the purpose of comparison and validation of enzyme inhibition data, these compounds were tested against human AKR1B1 (hAKR1B1) expressed in E. coli BL21 (DE3). We found a similar pattern of enzyme inhibition for the synthesized compounds against extracted enzyme (ALR2) as well as expressed enzyme (hAKR1B1).
as §2, §1
The calf’s kidneys were obtained after slaughtering and dissection, dissolved in 3 volumes of sodium phosphate buffer (10mM) which is composed of 2.0 mM EDTA, 2.5mM β-mercaptoethanol, 0.25M solution of sucrose at pH 7.25. First, the homogenisation was carried out then centrifugation of the homogenate was performed at 12000 x g at 0-2^◦C for 30 minutes. The precipitates containing insoluble lipids were discarded and the collected supernatant layer was treated with 40% saturation of ammonium sulphate. This liquid mixture was subjected to centrifugation at 11000 x g at 0-2^◦C for 30 minutes. Now, precipitates were again discarded and supernatant was collected and treated with 50% ammonium sulphate and procedure was repeated in the same manner as in previous step. In the last step, the saturation of ammonium sulphate was increased up to 75% and supernatant was subjected to same parameter of centrifugation. At this final step, precipitates were obtained and supernatant layer was discarded. The obtained material of precipitates was composed of ALR1and redissolved in initial buffer that was used during homogenisation. Finally, material was dialyzed overnight with same buffer system. The dialyzed fractions containing ALR1 were stored at -80^◦C for further use[5].

T3 sequence (Q3ZCJ2 whole entry): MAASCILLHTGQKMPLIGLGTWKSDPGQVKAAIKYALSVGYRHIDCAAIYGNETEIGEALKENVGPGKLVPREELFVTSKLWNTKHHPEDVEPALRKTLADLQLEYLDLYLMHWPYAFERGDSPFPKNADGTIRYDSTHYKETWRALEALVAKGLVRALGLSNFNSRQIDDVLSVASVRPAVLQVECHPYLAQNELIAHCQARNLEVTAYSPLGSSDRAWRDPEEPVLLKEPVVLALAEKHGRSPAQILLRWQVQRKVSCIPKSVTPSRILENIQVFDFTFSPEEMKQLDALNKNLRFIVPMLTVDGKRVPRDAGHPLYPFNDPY

Consider `CC(C)(C)c1cc(C=NNC(=S)NCc2ccc(Cl)cc2)c(O)c(C(C)(C)C)c1` [Compound 3f, N-(4-chlorobenzyl)-2-(3,5-di-tert-butyl-2-hydroxybenzylidene)hydrazine carbothioamide], for which the melting point is 184 to 186 °C. In addition, the “% FRSA (percent free radical scavenging activity)” value in data set [1] is recorded as 82.98%. On human AKR1B1 (hAKR1B1), this compound yielded an IC50 of 3.04 ± 0.0034 µM. Also, half-maximal inhibition at ALR2 (IC50) required 3.12 ± 0.0031 µM. The inhibition at 100 µM on ALR1 lay in the range of 4.27 to 26.2%.

`CC(C)(C)c1cc(C=NNC(=S)Nc2cccc(Cl)c2Cl)c(O)c(C(C)(C)C)c1` [Compound 3j, 2-(3,5-di-tert-butyl-2-hydroxybenzylidene)-N-(2,3-dichlorophenyl)hydrazine carbothioamide]: the melting point was in the range of 193 to 195 °C. Besides, the “% FRSA (percent free radical scavenging activity)” value in data set [1] stood at 89.75%. Besides, inhibition against human AKR1B1 (hAKR1B1) was half-maximal at 2.75 ± 0.003 µM (IC50). Besides, the midpoint of inhibition against ALR2, the IC50, lay at 4.01 ± 0.0021 µM. In addition, the inhibition at 100 µM on ALR1 was in the range of 4.27 to 26.2%.

`CC(C)(C)c1cc(C=NNC(=S)NCCc2ccccc2)c(O)c(C(C)(C)C)c1` [Compound 3o, 2-(3,5-di-tert-butyl-2-hydroxybenzylidene)-N-phenethylhydrazinecarbothioamide] had a melting point of 174 to 176 °C. Moreover, the “% FRSA (percent free radical scavenging activity)” value in data set [1] is 83.02%. In addition, the inhibition at 100 µM on human AKR1B1 (hAKR1B1) came out at 24.9%. Also, the inhibition at 100 µM on ALR2 is ≤ 39.1%. The inhibition at 100 µM on ALR1 is ≤ 29.9%.

The compound `COc1cccc(NC(=S)NN=Cc2cc(C(C)(C)C)cc(C(C)(C)C)c2O)c1` [Compound 3c, 2-(3,5-di-tert-butyl-2-hydroxybenzylidene)-N-(3-methoxyphenyl)hydrazine carbothioamide] showed a melting point of 173 to 175 °C. For the same compound, the “% FRSA (percent free radical scavenging activity)” value in data set [1] is 85.16%. On human AKR1B1 (hAKR1B1), this compound had an IC50 of 3.27 ± 0.0035 µM. The compound further had an IC50 against ALR2 of 4.49 ± 0.0034 µM. The same compound had an IC50 against ALR1 of 4.21 ± 0.0021 µM.

`CC(C)(C)c1cc(C=NNC(=S)Nc2ccccc2)c(O)c(C(C)(C)C)c1` [Compound 3a, 2-(3,5-di-tert-butyl-2-hydroxybenzylidene)-N-phenylhydrazinecarbothioamide]: the melting point is 178 to 180 °C. In addition, in data set [1], the “% FRSA (percent free radical scavenging activity)” value is given as 79.41%. The same compound showed an IC50 at human AKR1B1 (hAKR1B1) of 3.89 ± 0.0034 µM. The compound also gave an IC50 against ALR2 of 2.99 ± 0.0021 µM. Moreover, the concentration for half-maximal inhibition (IC50) against ALR1 is 2.83 ± 0.0034 µM.

`Cc1ccc(NC(=S)NN=Cc2cc(C(C)(C)C)cc(C(C)(C)C)c2O)cc1` [Compound 3k, 2-(3,5-di-tert-butyl-2-hydroxybenzylidene)-N-(p-tolyl)hydrazinecarbothioamide]: the melting point fell in the range of 186 to 188 °C. In addition, the “% FRSA (percent free radical scavenging activity)” value in data set [1] amounted to 86.60%. The inhibition at 100 µM at human AKR1B1 (hAKR1B1) turned out to be 41.2%. For the same compound, the inhibition at 100 µM at ALR2 was ≤ 44.6%. For the same compound, on ALR1, the inhibition at 100 µM is ≤ 31.6%.
